Measurements taken from patent publication US20220031611A1, “IMMUNOSUPPRESSIVE DOSAGE FORMS AND METHODS OF USE” (Gemini Laboratories, LLC, priority 2018, published 2022).

Assay: Storage stability: % assay of Tacrolimus
Assay type: physicochemical
Details: active pharmaceutical ingredient (API) lot, comparator
From the text: The pharmaceutical formulations disclosed herein may comprise oral formulations having improved solubility and/or stability profiles. The formulations may be suitable for oral delivery, for example via a solution or suspension. The formulations orally administrated via a solution or suspension can be bioequivalent to formulations administered via oral capsules, or any other administration route. The formulations disclosed herein are stable under standard storage conditions or accelerated conditions. The total amount of impurities in the formulations may be not more than about 0.1 to 3%, and standard storage conditions may comprise a temperature of about 20 to 25° C. (i.e., room temperature) and no more than about 40% Relative Humidity (RH). In one embodiment, the formulations disclosed herein are stable at room temperature for 18 to 24 months or longer. The stability of a formulation according to the present disclosure can be determined, for example, by measuring the physical state of the formulation, including the viscosity and presence of any discoloration and chemical stability by measuring assay of API & related compound. Tables 4 and 5 present stability characteristics of the compositions provided in Examples 1 & 2 above. The following Tables 8-9 show purity of a Tacrolimus oral solution of 1 mg/ml as a percent assay, based on the batch descriptions in Table 7. […]

In the case of `C=CC[C@@H]1/C=C(\C)C[C@H](C)C[C@H](OC)[C@H]2O[C@@](O)(C(=O)C(=O)N3CCCC[C@H]3C(=O)O[C@H](/C(C)=C/[C@@H]3CC[C@@H](O)[C@H](OC)C3)[C@H](C)[C@@H](O)CC1=O)[C@H](C)C[C@@H]2OC` [API_Lot # DMP (079)-38, Tacrolimus], the “% Assay” value is reported as 97.1%.
